According to patent publication EP0679399B1, “Phosphate diesters for treatment of epidermis proliferative diseases” (Senju Pharmaceutical Co., Ltd., priority 1994, dated 1995):

What was measured:
[1] = test system: mouse model of psoriasis vulgaris; experiment: Mouse model of psoriasis vulgaris induced by TPA (ear epidermal weight gain, ear swelling rate); assay type: in vivo, ddY mice; conditions: for inhibited the epidermal weight gain: relative to control; for Epidermal weight % gain: right vs left auricle, 72 hours after TPA, mean±SD (n=6-9)
Description: The efficacy of EPC-K was assayed in the mouse model of psoriasis vulgaris using 12-o-tetradecanoylphorbol-13-acetate (briefly TPA).
Male 6-week-old ddY mice purchased from SLC Japan were used.
The entire external surface of the right auricle of each mouse was coated with 20 nmol/40 µl of TPA/methanol, and after 6, 24, 48 and 72 hours, the thickness of the auricle was measured with a dial thickness gauge. The ear swelling rate (%) was then calculated. At 72 hours after application of TPA, the mouse was sacrificed and the right and left auricles were respectively punched out with a 8 mm (dia.) punch. The epidermis of each auricle was peeled off and the epidermal weight was determined. Then, the % gain in epidermal weight of the right auricle relative to the left auricle was calculated.
Each test substance was extemporaneously blended with TPA-methanol and 40 µl of the mixture was applied to the external surface of the right auricle of each mouse. Then, a methanolic solution of the corresponding test substance, 40 µl, was applied once daily for 2 days.
Dunnet's test was used for statistical efficacy evaluation of the test substance.

[2] = Acute toxicity (LD50) in rats; conditions: rat, in vivo
Description: The present compounds are very safe with extremely low toxic potential and can, therefore, be used with advantage for the purposes of this invention. For example, the LD50 of L-ascorbyl DL-α-tocopheryl phosphate potassium (abbreviation: EPC-K): is ≥ 5 g/kg p.o. (rats) and ≥ 100 mg/kg i.v. (rats).

## CCCCC(=O)O[C@]1(C(=O)CO)[C@@H](C)C[C@H]2[C@@H]3CCC4=CC(=O)C=C[C@]4(C)[C@@]3(F)[C@@H](O)C[C@@]21C [Betamethasone valerate, reference compound]
[1]; 25 µg/auricle
  body weight (side effect): induced body weight loss
  inhibited the epidermal weight gain: 81.1%
  Epidermal weight % gain: 21.0±19.9 %
[1]; 25 µg/auricle, 6, 24, 48 and 72 hours after TPA (Fig. 1)
  ear swelling rate: fairly potent efficacy but its effect had been attenuated by 24 and 48 hours after application

## Cc1c(C)c2c(c(C)c1OP(=O)(O)OC1=C(O)[C@@H]([C@@H](O)CO)OC1=O)CCC(C)(CCCC(C)CCCC(C)CCCC(C)C)O2 (mixture of isomers) [EPC-K, L-ascorbyl DL-α-tocopheryl phosphate potassium]
[2]; iv
  LD50: ≥ 100 mg/kg
[2]; po
  LD50: ≥ 5000 mg/kg
[1]; 500 µg/auricle
  inhibited the epidermal weight gain: 52.8%
  Epidermal weight % gain: 52.4±40.1 %
[1]; 1000 µg/auricle, compared with 25 µg betamethasone valerate (Fig. 1)
  ear swelling rate: more potent inhibitory effect
[1]; 1000 µg/auricle
  inhibited the epidermal weight gain: 80.3%
  Epidermal weight % gain: 21.8±17.4 %
[1]; 500 and 1000 µg/auricle, 6, 24, 48 and 72 hours after TPA (Fig. 1)
  ear swelling rate: dose-dependent inhibitory effects at all points of time
